Experimental data taken from paper PMC9147171, “Pharmacokinetic/Pharmacodynamic Evaluation of a New Purine-2,6-Dione Derivative in Rodents with Experimental Autoimmune Diseases” (Pharmaceutics, 2022).

Key:
[1] = target: T1, hrPDE3A (Homo sapiens, UniProt Q14432); assay: PDE-Glo catalytic activity assay, PDE3A; type: biochemical
T1 construct: purchased SignalChem, Richmond, Canada
Procedure: The inhibitory activity of compound 34 against hrPDE1B and hrPDE3A (SignalChem, Richmond, Canada) was assessed using the PDE-Glo™ catalytic activity assay (Promega Corporation, Madison, WI, USA). It was performed on 384-well plates according to manufacturer’s instructions with slight modifications. Solutions of both PDEs were prepared by diluting their stock solutions in the PDE-Glo™ Reaction Buffer and aliquots of 6.5 μL were added to the wells. A stock solution of the tested compound was prepared in DMSO at a concentration of 10 mM and serially diluted with the same solvent. The obtained solutions were further diluted with PDE-Glo™ Reaction Buffer (1:5, v/v) and aliquots of 1 μL were transferred to the respective wells. Then, the mixture was incubated for 10 min at 30 °C on a heated plate shaker (Grant Instruments, Cambridge, United Kingdom). The reaction was started by the addition of 2.5 μL of a 0.2 μM cAMP solution to each well and the plate was incubated for 10 min at 30 °C on a heated plate shaker. Moreover, for each series, respective control reactions were performed: no-substrate, no-enzyme negative control reactions; no-enzyme positive control reactions containing substrate; and no-inhibitor positive control reactions containing both the substrate and PDE. After incubation, the reaction was stopped by adding 2.5 μL of the PDE-Glo™ Termination Buffer. A volume of 2.5 μL of the PDE-Glo™ Detection Buffer was transferred to each well and the plate was incubated for 20 min at room temperature. Finally, an aliquot of 10 μL of the PDE-Glo Kinase® Reagent was added to the wells. The plate was incubated for 10 min at room temperature and luminescence was measured with a luminometer (BMG Labtech, Ortenberg, Germany). For each inhibitor concentration, four independent measurements were performed. The resulting data were expressed as percent of an uninhibited control and plotted against the inhibitor concentration. The IC50 values were estimated by nonlinear regression using ADAPT5 software (BMSR, Los Angeles, CA, USA).

[2] = system: PDE4B; settings: read-out: IC50 (µM) Against PDE Isoform PDE4B; cited from earlier work
[3] = Pharmacokinetic study in mice, single IP dose, serum; type: in vivo, female C57BL/6 mice; settings: female, mouse
Procedure: (§1) Female Lewis rats and female C57BL/6 mice were administered IP with compound 34 dissolved in vehicle at a dose of 20 and 50 mg·kg^−1, respectively. Rats and mice were sacrificed at different time points (n = 3 per time point) following compound administration by decapitation under deep anesthesia. Thereafter, blood samples were harvested and allowed to clot at room temperature for 20 min and serum was separated by centrifugation at 3000 rpm for 10 min (EBA 12 R, Hettich, Germany). The obtained serum samples were stored at −80 °C until analysis.
(§2) Concentrations of compound 34 in rat and murine serum were quantified by an HPLC/UV method. To isolate the investigated compound, 100 μL of serum containing compound 34 or the same volume of blank serum spiked with a standard solution of compound 34, 10 μL of 4-(8-((furan-2-ylmethyl)amino)-1,3-dimethyl-2,6-dioxo-2,3,6,7-tetrahydro-1H-purin-7-yl)-N’-(2-hydroxybenzylidene)butanehydrazide methanol solution was used as an internal standard (IS) at a concentration of 80 μg·mL^−1, and 50 μL of 0.2 M NaOH solution was added. Subsequently, 1 mL of ethyl acetate was added to each sample and extraction was performed for 20 min on a VXR Vibrax shaker (IKA, Germany). Then, the samples were centrifuged (10,000× g, 5 min) on EBA 12 R centrifuge (Hettich, Germany) and the organic layers were collected and transferred to clean tubes. Subsequently, the organic layers were evaporated under a mild stream of nitrogen at 37 °C and the residues were dissolved in 100 μL of mobile phase and subjected to an HPLC analysis. The HPLC system (LaChrom Elite, Merck-Hitachi, Germany) consisted of L-2420 UV-VIS detector, an L-2200 autosampler, and an L-2130 pump. EZChrome Elite v. 3.2 (Merck-Hitachi, Germany) software was used for data acquisition and integration. The analysis was performed at ambient temperature on a LiChrospher 100 RP-18 column (250 × 4 mm) and a LiChroCART (4 × 4 mm) pre-column (Merck, Germany). The mobile phase was composed of acetonitrile mixed with 20 mM KH2PO4 water solution (pH = 4.5) at the ratio of 40:60 (v/v). A flow rate was 1 mL·min^−1 and analytical wavelength was set at 302 nm. The retention times of compound 34 and IS were approximately 6.3 min and 10.6 min. The method was validated according to the FDA Bioanalytical Method Validation Guidance for Industry (2018). The calibration curves constructed by plotting the peak area of the studied compound to the peak area of the IS vs. compound concentrations were linear in the tested concentration range, i.e., from 0.05–10 mg·L^−1 (r > 0.998). The limit of quantification was 0.05 mg·L^−1. […] The assay presented acceptable intra- and inter-assay precision and accuracy (i.e., they were within 15% of the CV and 15% of the nominal concentration, respectively) for all quality control concentrations (0.1, 1, and 5 mg·L^−1). The mean extraction efficiencies of the analyzed compound and the IS were above 80%.
(§3) Pharmacokinetics of compound 34 were investigated in rats and mice following single IP administration. One- and two-compartment models with first-order absorption and linear elimination were tested, but only the one-compartment model appropriately described the concentration-time courses of compound 34 in both rat and murine serum. […] The equations of the model are as follows:(1) dA/dt=−ka×A;A0=D×F, (2) Vd×dCp/dt=ka×A−CLT×Cp; Cp0=0 where A is the amount of the drug at the absorption site, ka is the first-order rate constant of drug absorption, D is the dose, F is the bioavailability, Vd is the volume of distribution, CLT is the total clearance, and Cp is the serum concentration of compound 34.

[4] = Pharmacokinetic study in rats, single IP dose, serum; type: in vivo; settings: female, Lewis, rat
Procedure: as §1, §2, §3

T1 sequence (Q14432 whole entry): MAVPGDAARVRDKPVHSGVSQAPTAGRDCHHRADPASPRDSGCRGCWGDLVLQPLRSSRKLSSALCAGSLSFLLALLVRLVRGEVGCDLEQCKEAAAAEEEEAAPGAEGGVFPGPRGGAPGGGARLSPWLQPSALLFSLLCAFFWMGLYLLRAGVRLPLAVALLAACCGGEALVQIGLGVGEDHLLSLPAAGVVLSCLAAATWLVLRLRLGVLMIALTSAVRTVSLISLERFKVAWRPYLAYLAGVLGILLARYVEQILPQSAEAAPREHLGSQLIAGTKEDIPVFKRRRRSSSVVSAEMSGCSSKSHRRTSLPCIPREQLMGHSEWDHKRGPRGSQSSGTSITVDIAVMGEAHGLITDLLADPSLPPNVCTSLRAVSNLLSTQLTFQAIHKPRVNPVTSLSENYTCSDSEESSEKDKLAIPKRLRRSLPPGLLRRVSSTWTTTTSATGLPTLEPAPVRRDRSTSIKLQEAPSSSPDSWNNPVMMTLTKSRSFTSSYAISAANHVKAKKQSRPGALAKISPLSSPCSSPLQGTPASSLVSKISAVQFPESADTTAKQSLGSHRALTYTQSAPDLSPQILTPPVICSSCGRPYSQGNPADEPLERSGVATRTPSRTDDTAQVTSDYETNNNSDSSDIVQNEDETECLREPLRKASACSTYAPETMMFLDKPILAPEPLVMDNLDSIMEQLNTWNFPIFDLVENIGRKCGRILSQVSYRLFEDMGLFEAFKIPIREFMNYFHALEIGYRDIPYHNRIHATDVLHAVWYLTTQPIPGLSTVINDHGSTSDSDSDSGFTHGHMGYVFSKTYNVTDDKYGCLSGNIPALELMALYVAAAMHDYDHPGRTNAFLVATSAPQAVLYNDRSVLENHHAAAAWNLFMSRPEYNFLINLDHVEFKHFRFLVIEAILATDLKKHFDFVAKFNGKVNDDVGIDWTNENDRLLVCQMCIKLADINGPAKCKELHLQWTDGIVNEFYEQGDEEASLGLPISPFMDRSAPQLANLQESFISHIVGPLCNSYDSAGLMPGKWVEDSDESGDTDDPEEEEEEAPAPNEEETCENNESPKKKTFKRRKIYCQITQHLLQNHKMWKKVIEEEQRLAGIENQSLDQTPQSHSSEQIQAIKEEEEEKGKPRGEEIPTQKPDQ

SMILES: Cn1c(=O)c2c(nc(NCCc3ccccc3)n2CCCC(=O)NN=Cc2ccc(O)c(O)c2O)n(C)c1=O [Compound 34, 4-(1,3-dimethyl-2,6-dioxo-8-(phenethylamino)-2,3,6,7-tetrahydro-1H-purin-7-yl)-N′-(2,3,4-trihydroxybenzylidene)butanehydrazide]
- IC50 ([1]; human recombinant PDE3A, CV% in brackets, read-out: IC50 (µM) Against PDE Isoform (CV%) PDE3A): 0.78 µM
- times more potent than GRMS-55 in inhibiting PDE3A ([1]; ratio of IC50 values, vs GRMS-55): 17 times
- inhibitory activity against PDE3A, times lower compared to milrinone ([1]; ratio of IC50 values, vs milrinone): about 4 times
- IC50 [2]: 1.4 µM
- absorption half-life ([3]; C57BL/6, serum, 50 mg·kg^−1, IP, solution in DMSO:PEG400:sterile water (10:40:50)): 4.5 min
- Vd/F ([3]; C57BL/6, single IP dose 50 mg·kg^−1, serum, one-compartment model, read-out: Vd/F Apparent volume of distribution, Final Estimate (CV%)): 21.7 L/kg
- AUC ([3]; C57BL/6, single IP dose 50 mg·kg^−1, serum, read-out: AUC Area under the concentration-time curve, Final Estimate (CV%) (converted)): 818 ng·h/mL
- CL/F ([3]; C57BL/6, single IP dose 50 mg·kg^−1, serum, read-out: CLT/F Apparent clearance, Final Estimate (CV%)): 1020 mL/min/kg
- Cmax ([3]; C57BL/6, single IP dose 50 mg·kg^−1, serum, read-out: Cmax Maximum serum concentration, Final Estimate (CV%)): 1370 ng/mL
- half-life ([3]; C57BL/6, single IP dose 50 mg·kg^−1, serum, read-out: t0.5 Elimination half-life, Final Estimate (CV%)): 14.7 min
- absorption half-life ([4]; serum, 20 mg·kg^−1, IP, suspension in 10% methylcellulose): 1.2 min
- Vd/F ([4]; single IP dose 20 mg·kg^−1, serum, one-compartment model, read-out: Vd/F Apparent volume of distribution, Final Estimate (CV%)): 8.7 L/kg
- AUC ([4]; single IP dose 20 mg·kg^−1, serum, read-out: AUC Area under the concentration-time curve, Final Estimate (CV%) (converted)): 752 ng·h/mL
- CL/F ([4]; single IP dose 20 mg·kg^−1, serum, read-out: CLT/F Apparent clearance, Final Estimate (CV%)): 440 mL/min/kg
- Cmax ([4]; single IP dose 20 mg·kg^−1, serum, read-out: Cmax Maximum serum concentration, Final Estimate (CV%)): 1820 ng/mL
- half-life ([4]; single IP dose 20 mg·kg^−1, serum, read-out: t0.5 Elimination half-life, Final Estimate (CV%)): 13.6 min
